Biological target: T1, ESRRA (Homo sapiens, UniProt P11474)
T1 construct: endogenous in cells; host or cells: HCC38 CD44hi cells (FACS-sorted from bulk HCC38, 2D culture)
T1 sequence (P11474 1-423): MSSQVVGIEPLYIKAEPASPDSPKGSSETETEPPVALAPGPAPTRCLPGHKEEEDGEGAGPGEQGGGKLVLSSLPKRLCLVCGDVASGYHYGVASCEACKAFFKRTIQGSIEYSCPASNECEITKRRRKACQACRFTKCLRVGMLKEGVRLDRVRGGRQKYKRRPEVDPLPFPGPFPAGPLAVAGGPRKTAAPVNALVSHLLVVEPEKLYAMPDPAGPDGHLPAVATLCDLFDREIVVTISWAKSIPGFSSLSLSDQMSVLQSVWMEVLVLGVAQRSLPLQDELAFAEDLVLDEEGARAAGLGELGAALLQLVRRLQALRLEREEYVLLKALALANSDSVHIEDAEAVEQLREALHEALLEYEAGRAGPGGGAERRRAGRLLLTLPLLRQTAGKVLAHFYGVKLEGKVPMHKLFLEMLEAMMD
Assay: Western blot of CDH1 expression after ESRRA inhibitor (C14) treatment of HCC38 CD44hi cells
Format: cell-based
Settings: 2D cultured HCC38 CD44hi cells; 5 and 10 M; 48 hours post-treatment; vs DMSO vehicle; n=3 biological replicates; p≤0.05
Method: In parallel, HCC38 CD44^hi cells were also treated with an ESRRA inhibitor ((2-Aminophenyl)(1-(3-isopropylphenyl)-1H-1,2,3-triazol-4-yl)methanone) (BLD Pharm, China, Cat no. BD01201330) (referred to as Compound 14 (C14) herein) at 5 and 10 M concentrations. Vehicle controls were treated with DMSO. Cells were harvested 48 hours post-treatment and processed for protein extraction which were studied for changes in ESRRA and CDH1 expression using western blot (n=3 biological replicates).
Western Blotting: Proteins were extracted from control and treated cells using ice cold modified RIPA buffer (50 mM Tris-HCl pH 7.5, 150 mM NaCl, 1 mM EDTA, 1 mM EGTA, 1% Triton X-100, 0.1% SDS with supplemented with 1× protease and phosphatase inhibitor cocktails). The lysates were sonicated using a QSONICA Q55 probe sonicator at […] for 20 seconds in an ice bath. This whole cell lysate was centrifuged at 14,000×g for 10 min at 4° C. and stored in −80° C. until further use. Proteins were quantified using the Pierce™ BCA Protein Assay Kit (Cat. 23227, Thermo Fisher Scientific, USA) as per the manufacturer's instructions. […]
Next, membranes were incubated with appropriate HRP-conjugated secondary antibodies. […] The signal intensity of the bands in western blots was quantified using Image Studio Lite version 5.2 (LI-COR Biotechnology, USA).

CDH1 expression (western blot, relative fold-change): significant increase
Compound: CC(C)c1cccc(-n2cc(C(=O)c3ccccc3N)nn2)c1 [ESRRA antagonist, (2-Aminophenyl)(1-(3-isopropylphenyl)-1H-1,2,3-triazol-4-yl)methanone]

Reference: patent US20250308633A1, “Methods Regarding the Treatment or Prevention of Diseases Including Cancer by Modulating Transcriptional Networks Controlling MET and EMT” (Yale University, priority 2024, published 2025)
